Experimental data taken from PMC7807051, “Modulation of cAMP metabolism for CFTR potentiation in human airway epithelial cells” (Scientific Reports, 2021).

Experiments:
CFTR = test: In vitro CFTR membrane potential assay in Calu-3 cells; type: cell-based, human; conditions: Calu-3
Description: An in vitro CFTR membrane potential assay was performed on Calu-3 cells and primary human bronchial epithelial cells, from two independent donors, cultured at 37 °C as previously described. All human samples were collected from consented individuals under ethics approval granted by Hamilton Integrated Research Ethics Board (Project Number 5099-T).
Calu-3 cells were grown for 21 days on 96-well plates and primary HBECs were grown for 14 days under air–liquid interface conditions on collagen-coated (Sigma-Aldrich) 6.5 mm Transwell Inserts (Corning). All cells were washed with HBSS prior to experimental conditions. After washing with HBSS, cells were loaded with BLUE Membrane Potential Dye (Molecular Devices, #R8042) dissolved in 37 °C chloride-free buffer (NMDG Gluconate Buffer – 150 mM NMDG-gluconate, 3 mM KCl, 10 mM HEPES, pH 7.35, 300 mOsm). Immediately after dye loading, CFTR activity measurements were taken. CFTR activity measurements are fluorescent readouts for detecting ion channel activity. CFTR inhibition was performed with CFTRinh-172 (10 μM) for all experiments to attribute changes in fluorescence as CFTR channel activity. This assay has been validated using proof of concept studies where results obtained from this assay were able to recapitulate findings obtained from direct measurements of ion channel activity using Ussing chambers. At the end of this assay, raw data was exported for statistical analysis.
For Calu-3 cells, measurements were taken during baseline (40 min), cAMP elevation (30 min), and CFTR inhibition (20 min). cAMP elevation was performed using forskolin or isoproterenol (0.0005–50 μM). For assays with ABCC4 or PDE-4 inhibitors, a pre-incubation with the inhibitors (30 min) in the plate reader was performed prior to cAMP elevation. CFTR modulator VX-770 was used at 1 μM. CFTR activity was determined by dividing a single membrane potential peak measurement after the ABCC4 or PDE-4 inhibition and cAMP elevation additions to the stabilized baseline over DMSO control.
For in vitro CFTR membrane potential assays, in Calu-3 cells, values were normalized to the averaged baseline over averaged vehicle (DMSO) control of all biological replicates. SD was calculated using data from biological replicates (n = 4–8). An area under the curve (AUC), half-maximal concentration (EC50), […] (Emax), and baseline analysis was performed for each individual replicate then averaged together. The AUC analysis is an aggregate measure of sensitivity and maximal response, allowing for the observation of the total net responsiveness of the cells. The AUC analysis was done by normalizing the individual replicates to the bottom most value of the averaged vehicle control. In primary HBECs, six independent measurements were taken within a single Transwell insert. The value is the average of at least six measurements. These values were normalized to the averaged baseline over the averaged vehicle (DMSO) control. SD was calculated by treating the six measurements as independent, with additional technical replicates (n = 6–18). An AUC and max peak analysis were performed for each measurement, then averaged together. The max peak analysis was the max CFTR activity achieved during the drug addition step.
In order to compare the independent experiments performed, a fold-change analysis using individual AUC, EC50, and Emax, determined from their respective concentration–response curves, was performed and was normalized to the averaged DMSO vehicle control. A one-way ANOVA with subsequent post-hoc test or a paired t-test was performed. Statistical analysis was performed using GraphPad Prism 6.

G551D-CFTR = tested on: G551D-CFTR; parameters: method as in PMID 21083385, PMID 22047557; conditions: G551D-CFTR variants; various doses and treatment durations; cited from earlier work
[1] = forskolin (FSK) curve with agent vs DMSO control
[2] = isoproterenol (ISO) curve with agent vs DMSO control

Compound: CC(C)(C)c1cc(C(C)(C)C)c(NC(=O)c2c[nH]c3ccccc3c2=O)cc1O [VX-770, ivacaftor]
- Fold-change of AUC relative to vehicle control (CFTR; FSK stimulation, comparison across independent experiments): superior to either ABCC4 (MK-571) or PDE-4 (Roflumilast) inhibition alone
- Baseline of concentration–response curve, CFTR activity (CFTR; [1]): no significant changes
- EC50 of concentration–response curve, CFTR activity (CFTR; [1]): increased the sensitivity
- Emax of concentration–response curve, CFTR activity (CFTR; [1]): remained unchanged
- AUC of concentration–response curve, CFTR activity (CFTR; forskolin (FSK) curve with agent vs DMSO control, VX-770 1 μM, MK-571 1.8 μM, Ceefourin-1 4.8 μM, Roflumilast 1 μM, Rolipram 10 μM, IBMX 100 μM): significant increase
- Baseline of concentration–response curve, CFTR activity (CFTR; [2]): significant increase
- EC50 of concentration–response curve, CFTR activity (CFTR; [2]): no changes
- Emax of concentration–response curve, CFTR activity (CFTR; [2]): no changes
- AUC of concentration–response curve, CFTR activity (CFTR; isoproterenol (ISO) curve with agent vs DMSO control, same agent concentrations as E5): significant increase
- predicted forced expiratory volume in 1 s (FEV1) from baseline (G551D-CFTR): significant increases
